Degree of solubility data for 5 molecules are collected here from patent publication US9458337B2, “Curable resin composition, water-soluble ink composition, ink set, and image-forming method” (FUJIFILM CORPORATION, priority 2012, dated 2016).

This data set can be described thus: Degree of solubility of polymerization initiators (3 mass % aqueous solution). In kind it is physicochemical. On the set-up: key: A: The polymerization initiator was fully dissolved at room temperature.; B: The polymerization initiator was slightly precipitated at room temperature, and was fully dissolved when being heated at 60° C.; The polymerization initiator was not fully dissolved even when being heated at 60° C. Conditions: 3 mass % aqueous solution of the polymerization initiator; room temperature / heated at 60° C. On the procedure: 3 mass % aqueous solutions were respectively prepared using Polymerization Initiators I-1 to I-5, I-8, and R-1 to R-4, and the degrees of solubility of the polymerization initiators were evaluated according to the following evaluation standards.
A: The polymerization initiator was fully dissolved at room temperature.
B: The polymerization initiator was slightly precipitated at room temperature, and was fully dissolved when being heated at 60° C.
C: The polymerization initiator was not fully dissolved even when being heated at 60° C.
`C[N+](C)(CCCS(=O)(=O)[O-])CCOc1ccc2c(=O)c3ccccc3sc2c1` [Compound I-1]: the Degree of solubility entry is recorded as “A”.

For `COC(OC)(C(=O)c1ccc(OCC(=O)[O-])cc1)c1ccc(OCC(=O)[O-])cc1.[Na+].[Na+]` [Compound R-3], the Degree of solubility result is recorded as “C”.

`CC(C)(O)C(=O)c1ccc(OCCO)cc1` [Compound R-1]: the Degree of solubility result was “C”.

Consider `Cc1c(OCC(O)C[N+](C)(C)C)cc2c(=O)c3ccccc3sc2c1C` (centres unmarked) [Compound R-2], for which the Degree of solubility entry was “A”.

`CCC(Cc1ccc(S(=O)(=O)O)cc1)(C(=O)c1ccc(N2CCOCC2)cc1)N(C)C` (centres unmarked) [Compound R-4]: the Degree of solubility result is “A”.
